In patent publication US7235687B2, “Derivatives of 4,4′-dithiobis-(3-aminobutane-1-sulfphonates) and compositions containing same” (Institut National de la Sante et de la Recherche Medicale …, priority 2002, dated 2007):

Tested on: Deoxycorticosterone acetate (DOCA)-salt hypertensive rats
Experiment: Effect on blood pressure in DOCA-salt hypertensive rats
Type: in vivo, rat
Details: DOCA-salt hypertensive male Wistar Kyoto rats; oral gavage in water at 15 mg/kg; 4.5 hours after administration
Method: Deoxycorticosterone acetate (DOCA)-salt hypertensive rats were obtained according to Pham, I. et al (1993) J. Pharmacol. Exp. Ther. 265, 1339–1347 with the following modifications: under pentobarbital anaesthesia, unilateral nephrectomy was performed in male Wistar Kyoto rats (300 g) and a pellet of 50 mg of DOCA was implanted s.c. After surgery, the rats were fed on standard rat chow and the drinking water was supplemented with 0.9% NaCl and 0.2% KCl. Hypertension developed 3 weeks after surgery.
To record arterial blood pressure, DOCA-salt rats were anaesthetized with pentobarbital sodium (50 mg/kg i.p., Sentravet laboratory, Plancoët, France), a femoral artery catheter (PE50) filled with heparinized saline (250 U/ml) was inserted, then brought under the skin and emerged at the nape of the neck. A flexible metal spring was attached to the skull and neck of the rat and connected to dual channel swivels mounted directly above the cage. This arrangement allowed the rat free movement inside the cage. […] Mean arterial BP was continuously recorded throughout each experiment using a COBE CDX III pressure transducer (Phymep, Paris, France) connected to the MacLab system (Phymep, Paris, France) composed of a MacLab technology unit and Chart software running on a Macintosh computer. […]

With Cl.Cl.NC(CCS(=O)(=O)[O-])CSSCC(N)CCS(=O)(=O)[O-].[Na+].[Na+] (stereo not shown) [Example 1, 4,4′ dithiobis (sodium 3-aminobutane-1-sulfonate) bis chlorohydrate] the “decrease of mean arterial blood pressure” value was 3680 Pa.
